# Patent publication EP0306251A2, “Azolidinedione derivatives” (PFIZER INC., priority 1987, dated 1989)
# Tests used:
# [1] = target: T1, partially purified aldose reductase enzyme obtained from human placenta (Homo sapiens, UniProt P15121); experiment: inhibition of aldose reductase enzyme activity (procedure of Hayman et al., modified by Sestanj et al.); assay type: biochemical; conditions: 10^-5M
# T1 construct: partially purified aldose reductase enzyme obtained from human placenta; from tissue; host or cells: human placenta
# Protocol: The following spiro-3-heteroazolone compounds of Examples 4A, 4B, 6-9, 10A, 10B and 14, respectively, were tested for their ability to reduce or inhibit aldose reductase enzyme activity via the procedure of S. Hayman et al., as described in the Journal of Biological Chemistry, Vol. 240, p. 877 (1965) and as modified by K. Sestanj et al. in U.S. Patent No. 3,821,383. In every case, the substrate .employed was partially purified aldose reductase enzyme obtained from human placenta.
# [2] = system: sorbitol accumulation in the sciatic nerve and lens of streptozotocinized (i.e., diabetic) rats; experiment: inhibition of sorbitol accumulation in sciatic nerve and lens of streptozotocinized rats; assay type: in vivo; conditions: for Percent Inhibition (%) Lens / Percent Inhibition (%) Sciatic Nerve: sorbitol measured at 27 hours
# Protocol: The following spiro-3-heteroazolone compounds of Examples 4A, 4B, 6 and 10A, respectively, were tested for their ability to reduce or inhibit sorbitol accumulation in the sciatic nerve and lens of streptozotocinized (i.e., diabetic) rats by the procedure essentially described in U.S. Patent No. 3,821,383. In the present study, the amount of sorbitol accumulation in the sciatic nerve and lens of each test animal was measured 27 hours after induction of diabetes. The compounds were then administered orally at the dose levels indicated at 4, 8 and 24 hours following the administration of streptozotocin. The results obtained in this manner are presented below in terms of percent inhibition (%) afforded by the test compound as compared to the case where no compound was administered (i.e., the untreated animal where sorbitol levels normally rise from approximately 50-100 mM/g. tissue to as high as 400 mM/g. tissue in the 27-hour test period): […]
# [3] = 0.25 mg./kg. orally at 4, 8 and 24 hours after streptozotocin
# [4] = 5.0 mg./kg. orally at 4, 8 and 24 hours after streptozotocin
# [5] = 1.0 mg./kg. orally at 4, 8 and 24 hours after streptozotocin
# [6] = 0.1 mg./kg. orally at 4, 8 and 24 hours after streptozotocin
compound,measurement,setting,value
"C[C@@H]1C[C@]2(NC(=O)NC2=O)c2cc(Cl)cnc2O1 (racemic) [Product of Example 4A, (±)-cis-8'-chloro-2',3'-dihydro-2'-methyl-spiro-[imidazolidine-4,4'-4'H-pyrano[2,3-b]pyridine]-2,5-dione]",inhibition at 10 µM,[1],83%
same,Percent Inhibition (%) Lens,[2]; [3],22%
same,Percent Inhibition (%) Lens,[2]; [4],89%
same,Percent Inhibition (%) Sciatic Nerve,[2]; [3],34%
same,Percent Inhibition (%) Sciatic Nerve,[2]; [4],98%
"CC1CC2(NC(=O)NC2=O)c2cc(Cl)cnc2O1 (racemic) [Product of Example 4B, (±)-trans-6'-chloro-2',3'-dihydro-2'-methyl-spiro-[imidazolidine-4,4'-4'H-pyrano[2,3-b]pyridine]-2,5-dione]",inhibition at 10 µM,[1],77%
same,Percent Inhibition (%) Lens,[2]; [3],32%
same,Percent Inhibition (%) Sciatic Nerve,[2]; [3],13%
"C[C@@H]1C[C@]2(NC(=O)NC2=O)c2cc(Br)cnc2O1 (racemic) [Product of Example 6, (±)-cis-6'-bromo-2',3'-dihydro-2'-methyl-spiro-[imidazolidine-4,4'-4'H-pyrano[2,3-b]pyridine]-2,5-dione]",inhibition at 10 µM,[1],80%
same,Percent Inhibition (%) Lens,[2]; [5],67%
same,Percent Inhibition (%) Sciatic Nerve,[2]; [5],73%
"O=C1NC(=O)C2(CCOc3ncc(Cl)cc32)N1 (racemic) [Product of Example 7, (±)-6-chloro-2',3'-dihydro-spiro-[imidazolidine-4,4'-4'H-pyrano[2,3-b]pyridine]-2,5-dione]",inhibition at 10 µM,[1],60%
"C[C@@H]1C[C@]2(NC(=O)NC2=O)c2cccnc2O1 (racemic) [Product of Example 8, (±)-cis-2',3'-dihydro-2'methyl-spiro-[imidazolidine-4, 4'-4'H-pyrano[2,3-b]pyridine]-2,5-dione]",inhibition at 10 µM,[1],57%
"C[C@@H]1C[C@]2(NC(=O)NC2=O)c2cc(F)cnc2O1 (racemic) [Product of Example 9, (±)-cis-6'-fluoro-2',3'-dihydro-2'-methyl-spiro-[imidazolidine-4,4'-4H-pyrano-[2,3-b]pyridine]-2,5-dione]",inhibition at 10 µM,[1],77%
"C[C@@H]1C[C@]2(NC(=O)NC2=O)c2cc(Cl)cnc2O1 [Product of Example 10A, (4'S)(2'R)-6'-chloro-2',3'-dihydro-2'-methyl-spiro-[imidazolidine-4,4'-4'H-pyrano[2,3-b]pyridine]-2,5-dione]",inhibition at 10 µM,[1],100%
same,Percent Inhibition (%) Lens,[2]; [6],33%
same,Percent Inhibition (%) Lens,[2]; [5],73%
same,inhibit the formation of sorbitol levels in both the sciatic nerve and lens of diabetic rats,"[2]; oral route, dose levels ranging from 0.1-10.0 mg./kg., sciatic nerve and lens",significantly high degree
same,Percent Inhibition (%) Sciatic Nerve,[2]; [6],43%
same,Percent Inhibition (%) Sciatic Nerve,[2]; [5],78%
"C[C@H]1C[C@@]2(NC(=O)NC2=O)c2cc(Cl)cnc2O1 [Product of Example 10B, (2'S)(4'R)-6'-chloro-2',3^1-dihydro-2'-methyl-spiro-[imidazolidine-4,4'-4'H-pyrano[2,3-b]pyridine]-2,5-dione]",inhibition at 10 µM,[1],100%
"C[C@@H]1C[C@]2(NC(=O)NC2=O)c2cc(Cl)c[n+]([O-])c2O1 [Product of Example 14, (4'S)(2'R)-6'-chloro-2',3'-dihydro-2'-methyl-spiro-[imidazolidine-4,4'-4'H-pyrano[2,3-b]pyridine]-2,5-dione-8'-oxide]",inhibition at 10 µM,[1],79%
